Results: paper PMC10084949, “Peptide Variant Detection by a Living Yeast Biosensor via an Epitope-Selective Protease” (Biodesign Research, 2023)
Peptide text beside a SMILES is read from it.

Assays:
[1] = biological target: T1, SpSte2 with SpSxa2 or other fungal proteases (Schizosaccharomyces pombe, UniProt Q00619); test: Dose-response of SpSte2 fluorescent strains with cognate or noncognate proteases; type: cell-based
T1 construct: we cloned codon-optimized open reading frames (ORFs) of all 5 proteases and GPCRs; expressed in transfected cells; host or cells: S. cerevisiae strains from yTC370 (yTC530, yTC529, yTC531-534, yTC525, yTC526); two genome-integrated pTDH3-SpSTE2 copies
T1 sequence (Q00619 1-348): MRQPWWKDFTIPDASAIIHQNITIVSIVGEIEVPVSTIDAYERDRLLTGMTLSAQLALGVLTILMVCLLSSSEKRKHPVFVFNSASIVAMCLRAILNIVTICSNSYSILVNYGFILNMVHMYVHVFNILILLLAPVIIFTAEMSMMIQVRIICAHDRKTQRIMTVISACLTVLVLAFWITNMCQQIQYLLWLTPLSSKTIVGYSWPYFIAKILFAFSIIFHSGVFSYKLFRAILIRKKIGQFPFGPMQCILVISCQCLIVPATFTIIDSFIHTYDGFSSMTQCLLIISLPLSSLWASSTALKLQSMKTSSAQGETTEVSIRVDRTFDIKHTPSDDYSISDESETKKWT
Method: (§1) Glycerol stocked strains were streaked out on YPD plate and incubated for 2 days. Three colonies were picked, replated on YPD plate, incubated for 1 day, and then stored at 4 °C. For activation assays, a small scoop of yeast patch from the 3 colonies was resuspended in ~4 ml of YPD medium and incubated overnight. Overnight cells were seeded at an optical density at 600 nm (OD600) of 0.15 (as measured in 96-well plate at 200-μl volume) in SC/Glc medium after washing twice with sterile Mili-Q H2O. GPCR activity and response to increasing concentrations of synthetic peptide ligands were measured in strains carrying appropriate genome-integrated components in 96-well microtiter plates in 200-μl total volume and cultured at 30 °C and 800 rpm, unless otherwise stated. All measurements were performed in biological triplicate. Culture turbidity (OD600) and fluorescence for ymTurquoise2 (excitation, 439 nm; emission, 475 nm; gain, 75) were measured after 0 and 8 h using an Infinite 200 Pro plate reader (Tecan). Dose–response curve was measured at 11 different concentrations of the appropriate synthetic peptide ligand with a constant dilution factor and a no-peptide, H2O control. The absorbance at 600 nm normalized fluorescence values and log10-transformed peptide concentrations were fit to a 4-parameter nonlinear regression model using Prism (GraphPad) to extract GPCR-specific values for basal activation, maximal activation, EC50, and the Hill coefficient.
(§2) To validate the effect of peptide proteases on their complementary and noncomplementary peptides (Table S8), from the parent strain yTC370, we engineered 30 strains (Table S1).
(§3) Next, to validate whether we can control the extent of peptide cleavage by their cognate proteases by modulating the concentration of expressed protease, we constitutively expressed proteases under promoters of different expression levels. For the purpose of determining the protease’s specificity in previous section (S1), all proteases were expressed under pCCW12, which is one of the strongest characterized promoters in yeast. Here, we introduced 2 additional promoters to convey medium and low expression levels of the proteases. We selected pRPL18B for medium expression and pRAD27 for low expression level. We cloned these promoters upstream from protease ORFs in Golden Gate cassette plasmids, assembled the protease cassettes with their cognate GPCRs and fluorescent readout, and integrated into parent yTC370 strain (see Materials and Methods and Table S1). Then, we compared dose–response curves of strains responding to their cognate peptides without the protease or with protease at 3 different expression levels (low, medium, and high) (S2).

[2] = system: SoSte2 with SoSxa2 or other fungal proteases; test: Dose-response of SoSte2 fluorescent strains with cognate or noncognate proteases; type: cell-based, Schizosaccharomyces octosporus
Method: as §1, with “coefficient. […]” for “coefficient.”
Next, to validate whether we can control the extent of peptide cleavage by their cognate proteases by modulating the concentration of expressed protease, we constitutively expressed proteases under promoters of different expression levels. […] We cloned these promoters upstream from protease ORFs in Golden Gate cassette plasmids, assembled the protease cassettes with their cognate GPCRs and fluorescent readout, and integrated into parent yTC370 strain (see Materials and Methods and Table S1). […]

[3] = system: SjSte2 with SjSxa2 or other fungal proteases; test: Dose-response of SjSte2 fluorescent strains with cognate or noncognate proteases; type: cell-based, Schizosaccharomyces japonicus
Method: as §1, §2, §3

[4] = noncomplementary proteases, pCCW12, fluorescent readout

Sequence of SjSte2 with SjSxa2 or other fungal proteases (as listed by the source): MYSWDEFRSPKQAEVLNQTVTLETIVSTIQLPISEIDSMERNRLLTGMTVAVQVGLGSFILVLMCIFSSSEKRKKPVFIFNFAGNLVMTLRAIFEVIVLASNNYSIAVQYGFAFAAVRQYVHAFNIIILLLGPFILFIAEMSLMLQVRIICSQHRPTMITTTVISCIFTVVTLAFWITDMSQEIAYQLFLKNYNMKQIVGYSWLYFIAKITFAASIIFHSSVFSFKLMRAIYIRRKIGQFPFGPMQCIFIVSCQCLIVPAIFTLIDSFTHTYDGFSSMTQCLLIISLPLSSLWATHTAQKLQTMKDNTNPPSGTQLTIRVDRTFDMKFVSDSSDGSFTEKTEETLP
Sequence of SoSte2 with SoSxa2 or other fungal proteases (as listed by the source): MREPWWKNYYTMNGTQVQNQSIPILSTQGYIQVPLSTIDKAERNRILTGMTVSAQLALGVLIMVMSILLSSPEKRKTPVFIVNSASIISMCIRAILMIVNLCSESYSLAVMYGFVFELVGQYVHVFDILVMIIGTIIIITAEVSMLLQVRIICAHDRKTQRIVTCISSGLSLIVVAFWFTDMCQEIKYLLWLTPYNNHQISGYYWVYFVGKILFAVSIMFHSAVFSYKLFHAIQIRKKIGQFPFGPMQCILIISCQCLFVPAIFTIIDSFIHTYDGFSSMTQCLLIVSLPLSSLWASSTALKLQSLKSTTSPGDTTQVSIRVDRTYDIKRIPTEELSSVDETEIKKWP

CC(C)C[C@H](NC(=O)[C@H](CC(N)=O)NC(=O)[C@@H]1CCCN1C(=O)[C@H](CCCNC(=N)N)NC(=O)[C@H](CC(=O)O)NC(=O)[C@@H]1CCCN1C(=O)[C@H](CC(N)=O)NC(=O)[C@@H](NC(=O)[C@H](Cc1ccccc1)NC(=O)[C@@H](NC(=O)[C@H](CC(N)=O)NC(=O)[C@H](Cc1c[nH]c2ccccc12)NC(=O)[C@H](CO)NC(=O)[C@H](CCC(N)=O)NC(=O)[C@H](Cc1ccc(O)cc1)NC(=O)[C@H](C)NC(=O)[C@H](CCCNC(=N)N)NC(=O)[C@H](CC(C)C)NC(=O)[C@H](Cc1ccccc1)NC(=O)[C@H](CC(=O)O)NC(=O)[C@H](C)NC(=O)[C@H](Cc1ccc(O)cc1)NC(=O)[C@@H](N)[C@@H](C)O)[C@@H](C)O)C(C)C)C(=O)O [SpPep] (H-TYADFLRAYQSWNTFVNPDRPNL-OH; N-terminus and C-terminus assumed)
effect of cognate protease SpSxa2 on response ([1]; SpSxa2 under pCCW12 (high expression), fluorescent readout, 8 h): practically completely attenuated the response
EC50 shift with low SpSxa2 expression ([1]; SpSxa2 under pRAD27 (low expression), fluorescent readout, 8 h): did not show notable apparent EC50 shift
EC50 shift with medium SpSxa2 expression ([1]; SpSxa2 under pRPL18B (medium expression), fluorescent readout, 8 h): ~2 orders of magnitude
cleavage by ScBar1 and CaBar1 [1, 4]: did not cleave
apparent EC50 with complementary protease SpSxa2 ([1]; out of the measurable peptide concentration range, pCCW12, fluorescent readout): > 100 µM
apparent EC50 shift with noncomplementary proteases SjSxa2 and SoSxa2 ([1]; pCCW12, fluorescent readout): between half and one order of magnitude

TYEDFLRVYKNWWSFQNPDRPDL [SoPep, S. octosporus pheromone peptide, synthetic]
EC50 shift with low and medium SoSxa2 expression ([2]; SoSxa2 under pRAD27 or pRPL18B, compared to strain with no protease): did not notably shift the apparent EC50
cleavage by ScBar1 and CaBar1 [2, 4]: did not cleave
apparent EC50 shift with noncomplementary proteases SjSxa2 and SpSxa2 ([2]; pCCW12, fluorescent readout): between half and one order of magnitude

VSDRVKQMLSHWWNFRNPDTANL [SjPep, S. japonicus pheromone peptide, synthetic]
apparent EC50 shift with complementary protease SjSxa2 ([3]; SjSxa2 under pCCW12 (high expression), fluorescent readout, 8 h): over one order of magnitude
EC50 shift with low SjSxa2 expression ([3]; SjSxa2 under pRAD27 (low expression)): did not affect EC50
apparent EC50 shift with medium and high SjSxa2 expression ([3]; SjSxa2 under pRPL18B and pCCW12, out of measurable range (>100 μM)): more than 2 orders of magnitude
EC50 ([3]; out of the measurable peptide concentration range, pCCW12, fluorescent readout, read-out: apparent EC50 with complementary protease SjSxa2): > 100 µM
